Measurements reported in patent publication US8907076B2, “Mycobacterial peptide deformylase” (Council of Scientific and Industrial Research, priority 2006, dated 2014).

Legend:
[1] = system: E. coli; assay: Growth of E. coli culture with antisense PS-ODN (colony forming units); type: cell-based, Escherichia coli; settings: 10 μM PS-ODN, Lauria-Bertani medium; colony forming units vs untreated
Method: Further, to ensure that PS-ODN1 permeabilized within the M. smegmatis cells, PS-ODN1 were conjugated with 3′Flourescein label and used for the treatment of mycobacterial culture (˜1×10^5 cells of M. smegmatis were incubated with 10 μM PS-ODNs in 3 ml 7H9 Middlebrook broth supplemented with 10% ADC and grown at 37° C./200 rpm for 24 hrs). […] Since PS-ODN1 was mycobacteria specific, in E. coli where this insertion sequence is absent, when culture was treated with 10 μM PS-ODN1 had no effect on its growth. (FIG. 7, right panel).

[2] = system: endogenous PDF protein; type: cell-based, Mycobacterium smegmatis
[3] = system: Mycobacterium smegmatis strain mc^2155; assay: Growth profile of M. smegmatis culture with antisense PS-ODNs (OD600 and colony forming units); settings: 10 μM PS-ODN, 24 h, 7H9 Middlebrook broth

For “PS-ODN1: 5′ phosphothiorate modified antisense oligodeoxyribonucleotide spanning bases 219-249 of M. tuberculosis def (insertion region); probably SEQ ID NO: 14 (antisense CGGATTGATGACCACACCGCGTCGGCGGGCGGTCAT; DNA, backbone and methylation of C not given here; phosphorothioate modified at 5'; listed as Mycobacterium tuberculosis)”, the “effect on growth profile of E. coli” value [1] was “no effect”, the “level of expression of endogenous PDF protein compared to untreated control” value [2] was “significant reduction” and the “decrease in growth of M. smegmatis compared to the untreated culture” value [3] was “five-fold decrease”.
